{"source": "patent US20220088403A1", "about": "“Methods And Compositions For Treating Coronavirus” (NOVOCURE GMBH, priority 2020, published 2022)", "key": {"HCoV-229E [1]": {"test_system": "HCoV-229E", "test": "Extracellular viral amount (virions secreted to the media) by RT-qPCR, combined effect of TTFields with remdesivir", "assay_type": "cell-based, HCoV-229E in human MRC-5 lung fibroblast cells", "details": "48 hpi"}, "HCoV-229E [2]": {"test_system": "HCoV-229E", "test": "Intracellular (cellular) viral load by RT-qPCR, combined effect of TTFields with remdesivir", "assay_type": "cell-based, HCoV-229E in human MRC-5 lung fibroblast cells", "details": "for Calculated additive: Remdesivir alone multiplied by TTFields alone"}}, "data": [{"smiles": "CCC(CC)COC(=O)[C@H](C)N[P@](=O)(OC[C@H]1O[C@@](C#N)(c2ccc3c(N)ncnn23)[C@H](O)[C@@H]1O)Oc1ccccc1", "note": "[remdesivir]", "values": [{"measurement": "reduction in number of virions secreted to the media", "setting": "HCoV-229E [1]; 0.011 μM remdesivir alone", "value": 31, "unit": "%"}, {"measurement": "reduction in number of virions secreted to the media", "setting": "HCoV-229E [1]; 0.023 μM remdesivir alone", "value": 75, "unit": "%"}, {"measurement": "decrease in number of virions secreted to the media", "setting": "HCoV-229E [1]; high dose (0.023 μM) remdesivir with concomitant 150 kHz TTFields", "value": 88, "unit": "%"}, {"measurement": "decrease in number of virions secreted to the media", "setting": "HCoV-229E [1]; low dose (0.011 μM) remdesivir with concomitant 150 kHz TTFields", "value": 68, "unit": "%"}, {"measurement": "reduction of cellular viral load", "setting": "HCoV-229E [2]; 0.023 μM remdesivir alone, MRC-5 infected 3 hr, MOI 0.01, 48 hpi", "value": 65, "unit": "%"}, {"measurement": "inhibition at 0.011 µM", "setting": "HCoV-229E [2]; Human coronavirus 229E, MRC5, 0.011 μM remdesivir alone, MRC-5 infected 3 hr, MOI 0.01, 48 hpi", "value": 27, "unit": "%"}, {"measurement": "Remdesivir alone (viral load remaining relative to control)", "setting": "HCoV-229E [2]; Remdesivir concentration 0.011", "value": 73, "unit": "%"}, {"measurement": "Calculated additive", "setting": "HCoV-229E [2]; Remdesivir concentration 0.011", "value": 42, "unit": "%"}, {"measurement": "Measured combined (viral load remaining relative to control)", "setting": "HCoV-229E [2]; Remdesivir concentration 0.011 with TTFields", "value": 46, "unit": "%"}, {"measurement": "Remdesivir alone (viral load remaining relative to control)", "setting": "HCoV-229E [2]; Remdesivir concentration 0.023", "value": 35, "unit": "%"}, {"measurement": "Calculated additive", "setting": "HCoV-229E [2]; Remdesivir concentration 0.023", "value": 20, "unit": "%"}, {"measurement": "Measured combined (viral load remaining relative to control)", "setting": "HCoV-229E [2]; Remdesivir concentration 0.023 with TTFields", "value": 15, "unit": "%"}, {"measurement": "reduction of viral load", "setting": "HCoV-229E [2]; high dose (0.023 μM) remdesivir with concomitant 150 kHz TTFields, 48 hpi", "value": 85, "unit": "%"}, {"measurement": "reduction of viral load", "setting": "HCoV-229E [2]; low dose (0.011 μM) remdesivir with concomitant 150 kHz TTFields, 48 hpi", "value": 54, "unit": "%"}]}]}
